Calls of active or inactive are those of the source.
Experiments:
cells = type: functional, cell-based
[1] = biological target: Heat shock protein HSP 90-alpha (Homo sapiens, UniProt P07900); type: functional, organism-based
[2] = Shn3 3'UTR reporter inhibitors, dose response, cell-based, Clone20 osteoblasts, firefly luciferase, cherry-picked (AID 624132); type: functional;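 further: firefly luciferase luminescence from reporter carrying the Shn3 3'UTR in osteoblasts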
[3] = control 3'UTR Renilla luciferase suppression, dose response, counter-screen for Shn3 inhibitor project, cell-based, Clone20-Shn3RL, cherry-picked (AID 624133); type: functional
[4] = biological target: T1, Histone-lysine N-methyltransferase NSD2 (Homo sapiens, UniProt O96028); type: biochemical
T1 sequence (O96028 whole entry): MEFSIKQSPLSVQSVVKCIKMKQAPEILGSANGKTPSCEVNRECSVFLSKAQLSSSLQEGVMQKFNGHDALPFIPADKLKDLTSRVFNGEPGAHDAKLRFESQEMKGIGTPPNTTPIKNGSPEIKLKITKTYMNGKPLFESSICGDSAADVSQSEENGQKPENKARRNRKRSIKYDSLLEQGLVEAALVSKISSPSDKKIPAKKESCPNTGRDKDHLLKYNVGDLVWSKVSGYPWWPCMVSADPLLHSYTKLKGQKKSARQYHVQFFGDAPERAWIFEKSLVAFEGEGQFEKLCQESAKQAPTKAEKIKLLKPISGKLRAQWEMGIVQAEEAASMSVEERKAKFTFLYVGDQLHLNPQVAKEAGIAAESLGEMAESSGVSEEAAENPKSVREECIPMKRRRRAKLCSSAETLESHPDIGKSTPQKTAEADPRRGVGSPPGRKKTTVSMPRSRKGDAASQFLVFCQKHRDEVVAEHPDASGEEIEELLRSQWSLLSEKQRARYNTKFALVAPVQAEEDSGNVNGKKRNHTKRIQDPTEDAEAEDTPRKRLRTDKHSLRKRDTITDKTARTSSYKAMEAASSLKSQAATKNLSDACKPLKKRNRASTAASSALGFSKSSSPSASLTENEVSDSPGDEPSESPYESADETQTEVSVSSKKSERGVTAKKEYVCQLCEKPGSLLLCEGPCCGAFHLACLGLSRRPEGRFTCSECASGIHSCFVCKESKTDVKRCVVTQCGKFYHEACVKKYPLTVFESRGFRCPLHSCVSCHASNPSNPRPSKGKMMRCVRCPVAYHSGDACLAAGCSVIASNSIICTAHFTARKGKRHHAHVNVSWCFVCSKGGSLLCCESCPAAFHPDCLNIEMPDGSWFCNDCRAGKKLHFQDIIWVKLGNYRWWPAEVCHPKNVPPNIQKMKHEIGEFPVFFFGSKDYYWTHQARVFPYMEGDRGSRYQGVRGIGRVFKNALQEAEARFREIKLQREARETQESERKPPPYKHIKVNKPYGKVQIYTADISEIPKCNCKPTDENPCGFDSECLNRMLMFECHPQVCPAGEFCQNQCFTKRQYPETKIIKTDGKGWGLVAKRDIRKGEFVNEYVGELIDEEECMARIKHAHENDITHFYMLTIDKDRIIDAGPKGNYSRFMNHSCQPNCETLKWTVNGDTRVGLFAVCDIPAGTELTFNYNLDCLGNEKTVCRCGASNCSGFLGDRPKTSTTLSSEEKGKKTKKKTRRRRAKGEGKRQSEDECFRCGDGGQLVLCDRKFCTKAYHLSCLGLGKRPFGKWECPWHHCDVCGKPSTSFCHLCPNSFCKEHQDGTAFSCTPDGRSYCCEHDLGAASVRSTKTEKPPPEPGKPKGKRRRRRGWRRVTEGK

Streptokinase A = biological target: T2, Streptokinase A (Streptococcus pyogenes serotype M1, UniProt P10520); test: S. pyogenes streptokinase expression inhibitors, potency, dose response, plasminogen activation absorbance, OD405 (AID 1914); type: functional, Streptococcus pyogenes M1 GAS;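 further: secreted streptokinase activity via plasminogen activation per viability signal from cell pellet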
T2 sequence (P10520 whole entry): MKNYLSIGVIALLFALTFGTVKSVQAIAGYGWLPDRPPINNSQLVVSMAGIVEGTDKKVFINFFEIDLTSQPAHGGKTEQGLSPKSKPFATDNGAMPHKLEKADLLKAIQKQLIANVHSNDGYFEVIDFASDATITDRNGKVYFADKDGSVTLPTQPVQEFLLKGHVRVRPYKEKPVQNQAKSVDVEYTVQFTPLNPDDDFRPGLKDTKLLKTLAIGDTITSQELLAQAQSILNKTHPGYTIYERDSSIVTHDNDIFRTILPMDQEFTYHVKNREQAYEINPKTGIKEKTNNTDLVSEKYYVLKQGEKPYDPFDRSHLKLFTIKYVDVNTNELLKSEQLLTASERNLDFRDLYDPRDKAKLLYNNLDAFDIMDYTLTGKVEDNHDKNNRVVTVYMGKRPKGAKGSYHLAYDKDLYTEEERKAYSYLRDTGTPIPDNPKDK

Streptococcus = test: Group A Streptococcus viability loss, dose response, counter-screen for streptokinase expression inhibitor project, luminescence, BacTiterGlo (AID 1915); type: functional, organism-based;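 further: potency for reduction of bacterial viability or growth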
[5] = biological target: Serine/threonine-protein kinase TAO1 (Homo sapiens, UniProt Q7L7X3); type: functional
Sequence of Serine/threonine-protein kinase TAO1 (Q7L7X3 whole entry): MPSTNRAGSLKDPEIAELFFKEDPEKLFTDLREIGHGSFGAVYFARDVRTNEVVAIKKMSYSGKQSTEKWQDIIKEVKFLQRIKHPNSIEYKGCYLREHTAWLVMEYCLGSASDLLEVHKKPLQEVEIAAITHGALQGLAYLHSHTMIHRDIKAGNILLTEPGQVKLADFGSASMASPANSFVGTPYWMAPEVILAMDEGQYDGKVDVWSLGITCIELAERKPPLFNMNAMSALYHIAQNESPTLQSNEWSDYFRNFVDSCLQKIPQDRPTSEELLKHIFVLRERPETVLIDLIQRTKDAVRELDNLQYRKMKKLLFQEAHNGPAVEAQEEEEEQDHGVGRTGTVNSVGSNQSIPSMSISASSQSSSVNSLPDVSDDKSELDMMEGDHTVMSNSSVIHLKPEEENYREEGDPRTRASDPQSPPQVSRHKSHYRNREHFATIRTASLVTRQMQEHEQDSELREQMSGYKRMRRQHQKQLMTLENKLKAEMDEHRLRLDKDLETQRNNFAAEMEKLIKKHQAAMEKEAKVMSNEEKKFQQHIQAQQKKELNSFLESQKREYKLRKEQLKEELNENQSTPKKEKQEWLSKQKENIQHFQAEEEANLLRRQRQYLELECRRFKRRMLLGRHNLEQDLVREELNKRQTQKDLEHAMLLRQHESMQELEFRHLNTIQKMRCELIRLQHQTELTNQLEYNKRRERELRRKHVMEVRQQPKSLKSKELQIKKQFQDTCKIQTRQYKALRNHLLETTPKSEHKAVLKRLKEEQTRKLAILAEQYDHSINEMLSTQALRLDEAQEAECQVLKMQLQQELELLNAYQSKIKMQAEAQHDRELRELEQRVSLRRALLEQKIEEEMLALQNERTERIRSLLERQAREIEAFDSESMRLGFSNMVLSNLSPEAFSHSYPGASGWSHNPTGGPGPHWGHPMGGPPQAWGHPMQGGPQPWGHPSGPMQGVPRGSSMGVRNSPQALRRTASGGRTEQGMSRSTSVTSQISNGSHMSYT

[6] = biological target: Mitogen-activated protein kinase kinase kinase 20 (Homo sapiens, UniProt Q9NYL2); type: functional
Sequence of Mitogen-activated protein kinase kinase kinase 20 (Q9NYL2 whole entry): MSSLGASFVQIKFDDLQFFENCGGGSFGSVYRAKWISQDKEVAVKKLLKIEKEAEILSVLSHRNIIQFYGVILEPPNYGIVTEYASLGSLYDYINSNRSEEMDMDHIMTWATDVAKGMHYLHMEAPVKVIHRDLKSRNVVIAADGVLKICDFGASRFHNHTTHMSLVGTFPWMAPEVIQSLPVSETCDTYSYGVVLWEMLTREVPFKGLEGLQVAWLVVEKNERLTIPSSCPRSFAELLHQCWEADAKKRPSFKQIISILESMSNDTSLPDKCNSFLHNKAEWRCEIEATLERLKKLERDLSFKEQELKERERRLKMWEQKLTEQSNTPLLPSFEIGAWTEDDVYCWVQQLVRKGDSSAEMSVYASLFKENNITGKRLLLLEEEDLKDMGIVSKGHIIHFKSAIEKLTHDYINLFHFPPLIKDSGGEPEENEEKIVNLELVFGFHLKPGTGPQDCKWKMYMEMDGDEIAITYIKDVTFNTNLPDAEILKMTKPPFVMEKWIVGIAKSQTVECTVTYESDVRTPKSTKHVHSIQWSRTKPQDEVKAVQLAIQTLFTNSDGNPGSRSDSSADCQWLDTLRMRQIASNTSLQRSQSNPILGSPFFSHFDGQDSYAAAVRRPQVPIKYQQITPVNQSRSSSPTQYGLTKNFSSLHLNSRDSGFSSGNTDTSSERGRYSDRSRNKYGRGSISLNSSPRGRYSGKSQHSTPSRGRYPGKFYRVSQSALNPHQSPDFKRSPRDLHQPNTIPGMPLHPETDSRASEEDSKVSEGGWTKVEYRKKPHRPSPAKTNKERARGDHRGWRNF

[7] = Luminescence Cell-Based Dose Confirmation HTS to Identify Activators of 5'UTR Stem-Loop Driven Alpha-Synuclein mRNA Translation in H4 Neuroglioblastoma Cells. [Related pubchem assays: 1829 (Project Summary), 1814 (Primary HTS)]; type: functional
H4 = test: Luminescence Cell-Based Dose Response HTS to Identify Activators of 5'UTR Stem-Loop Driven Prion Protein mRNA Translation in H4 Neuroglioblastoma Cells. [Related pubchem assays: 1829 (Project Summary), 1814 (Primary HTS)]; type: functional; conditions: Homo sapiens
Cytochrome P450 3A4 = Cytochrome P450 3A4 (Homo sapiens, UniProt P08684);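 further: CYP3A4 tested as one member of a cytochrome P450 panel screen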
Sequence of Cytochrome P450 3A4 (P08684 whole entry): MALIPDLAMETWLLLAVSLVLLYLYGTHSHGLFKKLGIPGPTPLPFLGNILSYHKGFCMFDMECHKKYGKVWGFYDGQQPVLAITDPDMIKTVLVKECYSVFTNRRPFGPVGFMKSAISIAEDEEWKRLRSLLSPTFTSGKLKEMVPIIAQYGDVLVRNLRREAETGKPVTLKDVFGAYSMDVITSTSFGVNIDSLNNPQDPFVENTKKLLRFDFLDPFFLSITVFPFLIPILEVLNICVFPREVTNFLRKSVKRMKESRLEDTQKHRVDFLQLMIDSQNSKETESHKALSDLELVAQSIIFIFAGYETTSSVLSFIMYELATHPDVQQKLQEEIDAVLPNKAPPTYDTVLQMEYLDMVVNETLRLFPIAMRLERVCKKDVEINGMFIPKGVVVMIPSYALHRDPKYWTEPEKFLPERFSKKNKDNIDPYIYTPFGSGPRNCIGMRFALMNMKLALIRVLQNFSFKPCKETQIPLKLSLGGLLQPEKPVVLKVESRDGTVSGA

Structure (SMILES) | EC50 (cells) | AC50 [1] | AC50 [2] | AC50 [3] | AC50 [4] | EC50 (Streptokinase A) | EC50 (Streptococcus) | EC50 [7] | EC50 (H4) | also measured
CCC(=O)NC(c1ccc(C)cc1)c1ccc2cccnc2c1O (stereo unspecified) | > 350 µM (not active) | 3.35 µM (active) | 704 nM (active) | 383 nM (active) | – | – | – | – | – | –
N/C(=N\N=C/c1ccc(-c2ccc(O)c(C(=O)O)c2)o1)N[N+](=O)[O-] | – | – | – | – | 7.57 µM (active) | – | – | – | – | –
CCCC(=O)NC(c1ccc(Cl)cc1)c1ccc2cccnc2c1O (stereo unspecified) | > 350 µM (not active) | 4.04 µM (active) | 937 nM (active) | 2720 nM (active) | – | > 150 µM (not active) | 30.1 µM (active) | – | – | –
Cc1cccc(NC(=O)Nc2ccc3c(c2)CCc2sc4ncnc(N)c4c2-3)c1 | – | – | – | – | – | – | – | – | – | Ki [5]: 3.98 µM (active); Ki [6]: 3.16 µM (active)
CC(=O)N(/N=C1\Sc2ccccc2C1=O)c1ccccc1C | – | – | – | – | 0.548 µM (active) | – | – | 2.51 µM (active) | 33.4 µM (active) | AC50 (Cytochrome P450 3A4): 31.6 µM (inconclusive)
Cc1ccc(-n2sc3ccccc3c2=O)cc1 | – | – | – | – | – | > 150 µM (not active) | 3.63 µM (active) | > 120 µM (not active) | 88.2 µM (active) | –

Reference: ChEMBL document CHEMBL1201862, “PubChem BioAssay data set” (2004)
